The test system of the experiment is HT29 intrarenal xenograft, nude mice, tumor weight change. As to the kind of experiment: NCI In Vivo Anticancer Drug Screen. Data for tumor model HT29;CX-1 Human Adenocarcinoma (MER+) (intrarenal inoculation) in NU/NU BALB/C (nude) mice. As to conditions: endpoint: mean tumor weight change, higher = larger tumour. The procedure: The antitumor activity of compounds was measured in mice bearing transplantable tumors. Survival or tumor size were measured and the results are expressed as the measurement made in the treated group (T) divided by the measurement made in the vehicle treated control group (C). The tumor model used in this assay is HT29;CX-1 Human Adenocarcinoma (MER+) (intrarenal inoculation) in NU/NU BALB/C (nude) mice

Where [1] appears, read: dose: 75.0 mg/kg/injection, schedule: Q04DX004 (sc), vehicle: saline.
The mark [2] stands for this setting: dose: 37.5 mg/kg/injection, schedule: Q04DX004 (sc), vehicle: water.
Where [3] appears, read: dose: 75.0 mg/kg/injection, schedule: Q04DX004 (sc), vehicle: water.
Where [4] appears, read: dose: 150.0 mg/kg/injection, schedule: Q04DX004 (sc), vehicle: water.
Where [5] appears, read: dose: 300.0 mg/kg/injection, schedule: Q04DX004 (sc), vehicle: saline with Tween-80.
The mark [6] stands for this setting: dose: 600.0 mg/kg/injection, schedule: Q04DX004 (sc), vehicle: saline with Tween-80.
The mark [7] stands for this setting: dose: 1200.0 mg/kg/injection, schedule: Q04DX004 (sc), vehicle: saline with Tween-80.
Where [8] appears, read: dose: 2400.0 mg/kg/injection, schedule: Q04DX004 (sc), vehicle: saline with Tween-80.
The mark [9] stands for this setting: dose: 100.0 mg/kg/injection, schedule: Q04DX004 (sc), vehicle: saline with Tween-80.
[10] abbreviates: dose: 200.0 mg/kg/injection, schedule: Q04DX004 (sc), vehicle: saline with Tween-80.
Where [11] appears, read: dose: 400.0 mg/kg/injection, schedule: Q04DX004 (sc), vehicle: saline with Tween-80.
[12] abbreviates: dose: 150.0 mg/kg/injection, schedule: Q04DX004 (sc), vehicle: Klucel (hydroxypropylcellulose) (HPC).
The mark [13] stands for this setting: dose: 600.0 mg/kg/injection, schedule: Q04DX004 (sc), vehicle: Klucel (hydroxypropylcellulose) (HPC).

The text below walks through data of PubChem BioAssay AID208 (DTP/NCI, 2004).

Values joined by “and” are separate entries in the source; they are usually repeats but may differ in a detail not shown here. Equal values may be shown once. Inconclusive results are not listed.

Turning to `c1ccc2c(c1)[As]=c1ccccc1=[As]2` (stereo not drawn), the T/C reads like this: (dose: 9.38 mg/kg/injection, schedule: Q04DX004 (sc), vehicle: saline) 113 % of control; (dose: 18.72 mg/kg/injection, schedule: Q04DX004 (sc), vehicle: saline) 86 % of control; (dose: 37.5 mg/kg/injection, schedule: Q04DX004 (sc), vehicle: saline) 107 % of control; under setting [1], 70 % of control.

For `Cc1ccc(S(=O)(=O)N/N=C/C(Br)=C(/Br)C(=O)O)cc1`, the T/C is, setting by setting: (dose: 1.25 mg/kg/injection, schedule: Q04DX004 (sc), vehicle: saline) 103 % of control; (dose: 2.5 mg/kg/injection, schedule: Q04DX004 (sc), vehicle: saline) 78 % of control; (dose: 5.0 mg/kg/injection, schedule: Q04DX004 (sc), vehicle: saline) 105 % of control.

Turning to `CCOC(=O)NC1=C(N2CC2)C(=O)C(NC(=O)OCC)=C(N2CC2)C1=O`, the T/C was 120 % of control (dose: 1.56 mg/kg/injection, schedule: Q01DX010 (sc), vehicle: saline); 88 % of control (dose: 3.13 mg/kg/injection, schedule: Q01DX010 (sc), vehicle: saline); 107 % of control (dose: 6.25 mg/kg/injection, schedule: Q01DX010 (sc), vehicle: saline).

For the compound `NC(CNC(=O)CBr)C(=O)O` (stereo not drawn), the T/C by setting is: under setting [2], 106 % of control; under setting [3], 96 % of control; under setting [4], 43 % of control.

As for `COc1cc2c3c(cccc3c1)C(=O)N(CCN(C)C)C2=O`, the T/C was 72 % of control (dose: 37.5 mg/kg/injection, schedule: Q04DX004 (sc), vehicle: saline with Tween-80); 98 % of control (dose: 75.0 mg/kg/injection, schedule: Q04DX004 (sc), vehicle: saline with Tween-80); 74 % of control (dose: 150.0 mg/kg/injection, schedule: Q04DX004 (sc), vehicle: saline with Tween-80); 105 % of control under setting [5].

On to `Cn1ccc(=Nc2ccc(NC(=O)c3ccc(N=c4ccn(C)c5ccc([N+](=O)[O-])cc45)cc3[N+](=O)[O-])cc2)cc1`, for which the T/C under setting [5] was 102 % of control, the T/C under setting [6] was 104 % of control, the T/C under setting [7] was 164 % of control and the T/C under setting [8] is 156 % of control.

As for `CC(=O)c1cccc(NC2C(N)C(NC(=O)N(C)C)(C(C)O)C(C)(O)C2(O)COC(=O)c2c(C)cccc2O)c1` (stereo not drawn), the T/C reads like this: (dose: 0.5 mg/kg/injection, schedule: Q04DX004 (ip), vehicle: saline) 124 % of control; (dose: 1.0 mg/kg/injection, schedule: Q04DX004 (ip), vehicle: saline) 93 % of control; (dose: 2.0 mg/kg/injection, schedule: Q04DX004 (ip), vehicle: saline) 75 % of control; (dose: 4.0 mg/kg/injection, schedule: Q04DX004 (ip), vehicle: saline) 100 % of control.

For the compound `N=C(N)c1ccc(/C=C/c2ccc(C(=N)N)cc2O)cc1`, the T/C under setting [3] is 101 % of control and the T/C under setting [4] was 86 % of control.

As for `COc1cc(C(C)(C)C)cc(OC)c1C(O)(c1c(OC)cc(C(C)(C)C)cc1OC)c1c(OC)cc(C(C)(C)C)cc1OC`, the T/C is 51 % of control (dose: 50.0 mg/kg/injection, schedule: Q04DX004 (sc), vehicle: saline with Tween-80); 79 % of control under setting [9]; 63 % of control under setting [10]; 68 % of control under setting [11]; 102 % of control under setting [6]; 80 % of control under setting [7]. In addition, under setting [8], the T/C is 61 % of control.

Consider `CC[C@@]1(O)C[C@H](OC2CC(N(C)C)C(OC3CC(O)C(OC4CCC(=O)C(C)O4)C(C)O3)C(C)O2)c2c(cc3c(c2O)C(=O)c2c(O)cccc2C3=O)[C@H]1C(=O)OC` (stereo partly drawn), for which the T/C (dose: 1.0 mg/kg/injection, schedule: Q01DX010 (ip), vehicle: water) was 58 % of control and the T/C (dose: 2.0 mg/kg/injection, schedule: Q01DX010 (ip), vehicle: water) is 37 % of control.

Regarding `N#CC(C#N)=C/C=C/c1cccc([N+](=O)[O-])c1`, the T/C reads like this: (dose: 25.0 mg/kg/injection, schedule: Q01DX010 (sc), vehicle: Klucel (hydroxypropylcellulose) (HPC)) 81 % of control; (dose: 50.0 mg/kg/injection, schedule: Q01DX010 (sc), vehicle: Klucel (hydroxypropylcellulose) (HPC)) 90 % of control; (dose: 100.0 mg/kg/injection, schedule: Q01DX010 (sc), vehicle: Klucel (hydroxypropylcellulose) (HPC)) 76 % of control; (dose: 200.0 mg/kg/injection, schedule: Q01DX010 (sc), vehicle: Klucel (hydroxypropylcellulose) (HPC)) 63 % of control.

For the compound `CCc1ccc(C2=C(O)C(=O)C(c3ccc(CC)cc3)=C(O)C2=O)cc1`, the T/C by setting is: under setting [9], 112 % of control; under setting [10], 91 % of control; under setting [11], 102 % of control.

As to `O=C1N[C@H]2[C@H](CS[C@H]2CCCCC(=O)N(CCP(c2ccccc2)c2ccccc2)CCP(c2ccccc2)c2ccccc2)N1`, the T/C was 121 % of control under setting [12] and 86 % of control under setting [13].

Regarding `O=C1c2ccccc2C(=O)c2c(NCCNCCO)ccc(O)c21`, the T/C was 104 % of control (dose: 12.5 mg/kg/injection, schedule: Q04DX004 (sc), vehicle: saline); 105 % of control (dose: 25.0 mg/kg/injection, schedule: Q04DX004 (sc), vehicle: saline); 74 % of control (dose: 100.0 mg/kg/injection, schedule: Q04DX004 (sc), vehicle: saline).

For `Nc1nnc[se]1`, the T/C is 64 % of control under setting [10]; 31 % of control under setting [11]; 23 % of control (dose: 800.0 mg/kg/injection, schedule: Q04DX004 (sc), vehicle: saline with Tween-80).

As for `CC1CCC(n2cnc3c(Cl)ncnc32)O1` (stereo not drawn), the T/C is 76 % of control under setting [12]; 80 % of control (dose: 300.0 mg/kg/injection, schedule: Q04DX004 (sc), vehicle: Klucel (hydroxypropylcellulose) (HPC)); 64 % of control under setting [13].

As for `C[C@]12CC[C@H](O)CC1=CC[C@@H]1[C@@H]2CC[C@]2(C)C(=O)CC[C@@H]12`, the T/C under setting [8] is 73 % of control.

`COc1cccc2c1C(=O)c1c(O)c3c(c(O)c1C2=O)CC(O)(C(=O)CO)CC3OC1CC(N)C(O)C(C)O1` (stereo not drawn): the T/C was 32 % of control and 53 % of control under setting [2]; 111 % of control and 117 % of control under setting [3]; 55 % of control and 68 % of control (dose: 300.0 mg/kg/injection, schedule: Q04DX004 (sc), vehicle: water).

With `C=CS(=O)(=O)c1ccccc1`, the T/C reads like this: (dose: 50.0 mg/kg/injection, schedule: Q01DX010 (sc), vehicle: saline) 49 % of control; (dose: 100.0 mg/kg/injection, schedule: Q01DX010 (sc), vehicle: saline) 82 % of control.

As to `CCOC(=O)c1ccc(NC(=O)Nc2nncs2)cc1`, the T/C reads like this: (dose: 100.0 mg/kg/injection, schedule: Q01DX010 (sc), vehicle: distilled water + Tween-80) 52 % of control; (dose: 200.0 mg/kg/injection, schedule: Q01DX010 (sc), vehicle: distilled water + Tween-80) 69 % of control; (dose: 800.0 mg/kg/injection, schedule: Q01DX010 (sc), vehicle: distilled water + Tween-80) 84 % of control.

Turning to `O=C(O)CC(=O)O.[NH-]C1CCCCC1[NH-].[Pt+2]` (stereo not drawn), the T/C was 64 % of control (dose: 10.0 mg/kg/injection, schedule: Q01DX010 (sc), vehicle: dextrose); 40 % of control (dose: 20.0 mg/kg/injection, schedule: Q01DX010 (sc), vehicle: dextrose); 7 % of control (dose: 40.0 mg/kg/injection, schedule: Q01DX010 (sc), vehicle: dextrose).

`COc1cc2c(ccc3c4cc(OC)c(OC)cc4c[n+](C)c23)cc1O`: the T/C was 49 % of control under setting [1]; 42 % of control (dose: 150.0 mg/kg/injection, schedule: Q04DX004 (sc), vehicle: saline); 51 % of control (dose: 300.0 mg/kg/injection, schedule: Q04DX004 (sc), vehicle: saline); 75 % of control (dose: 600.0 mg/kg/injection, schedule: Q04DX004 (sc), vehicle: saline).

`Cc1cc(N)c2ccccc2[n+]1CCCCCCCCCC[n+]1c(C)cc(N)c2ccccc21`: the T/C is 101 % of control (dose: 0.38 mg/kg/injection, schedule: Q01DX010 (ip), vehicle: dextrose); 101 % of control (dose: 0.75 mg/kg/injection, schedule: Q01DX010 (ip), vehicle: dextrose); 81 % of control (dose: 1.5 mg/kg/injection, schedule: Q01DX010 (ip), vehicle: dextrose).
